Data reported in PMC3480206 (Future microbiology, 2012).
Values after ≈ are worked out from the molar mass of the structure shown. “Also recorded” adds a separate entry of the source. Like-named read-outs stand apart in the source and are kept apart here.

Experiments:
Mtb [1] = assay: Broth microdilution MIC against Mtb; type: cell-based, Mycobacterium tuberculosis
[2] = test system: Mycobacterium tuberculosis H37Rv; assay: BACTEC MIC; type: cell-based; details: ATCC27294|H37RV
[3] = test system: Mycobacteria avium, marinum, chelonae and abscessus; assay: MIC on other pathogenic Mycobacteria; type: cell-based
[4] = test system: Mycobacteria bovis, M. bovis BCG and Mycobacteria fortuitum; type: cell-based
Mtb inside macrophages [5] = assay: Intracellular killing in Mtb-infected macrophages; type: cell-based, Mycobacterium tuberculosis; details: SQ109 with CFZ; Reddy V, Unpublished Data
[6] = test system: Mycobacterium tuberculosis H37Rv; assay: In vitro drug interaction, checkerboard titration by 96-well microdilution; type: cell-based
[7] = test system: Helicobacter pylori clinical isolates; assay: MIC and time-kill on Helicobacter pylori; type: cell-based
Clostridium difficile = assay: MIC on Clostridium difficile; type: cell-based; details: Clostridioides difficile
Aspergillus fumigatus = assay: MIC on Aspergillus fumigatus; type: cell-based
Candida spp. = assay: MIC on Candida spp.; type: cell-based
Cryptococcus neoformans = assay: MIC on Cryptococcus neoformans; type: cell-based
Enterococci spp. = assay: MIC on Enterococci spp.; type: cell-based
Haemophilus influenzae = assay: MIC on Haemophilus influenzae; type: cell-based
Neisseria gonorrhoeae = assay: MIC and MBC on Neisseria gonorrhoeae; type: cell-based
Streptococcus pneumoniae = assay: MIC on Streptococcus pneumoniae; type: cell-based
[8] = In vivo pairwise drug-drug interaction studies with first-line drugs; details: pairwise studies of SQ109 with INH, RIF or streptomycin in mice or rats
Mtb [9] = assay: Rapid, high-dose model of TB infection; type: in vivo, mice; details: murine model of acute infection
[10] = test system: Salmonella–Escherichia coli; assay: Salmonella–Escherichia coli/microsome plate incorporation assay; type: cell-based; details: In vitro mutagenicity studies
[11] = Micronucleus assay in rats; details: rat, in vivo
[12] = Neurological safety assessment, rats; type: in vivo; details: 90-day oral dosing at 30, 120 and 240 mg/m^2/day
[13] = Neurological safety assessment, beagle dogs; type: in vivo; details: 90-day oral dosing at 100, 300 and 1000 mg/m^2/day
[14] = Pulmonary safety testing, beagle dogs; type: in vivo; details: single oral dosing at 75, 140 and 300 mg/m^2
[15] = Phase Ib, multiple daily doses; type: in vivo, healthy humans
[16] = in vivo
[17] = human, in vivo
Mtb inside macrophages [18] = details: cited from earlier work
[19] = test system: Mtb gene clusters GC82 and GC120, iniBAC operon; details: cited from earlier work
Mtb [20] = details: cited from earlier work
[21] = test system: Mycobacterium tuberculosis H37Rv; details: cited from earlier work
Mtb [22] = details: cited from earlier work; remark: listed apart in the source
Mtb [23] = details: 10 mg/kg, cited from earlier work
[24] = test system: Mycobacterium tuberculosis H37Rv; details: mouse, in vivo; cited from earlier work
[25] = mice; cited from earlier work
[26] = rat, in vivo; cited from earlier work
[27] = rats; cited from earlier work
CYP450 2D6 and 2C19 = details: cited from earlier work
CYP3A4 = details: cited from earlier work
[28] = Phase Ia, escalating single dose; details: for mean maximum concentration: fasting human subjects
[29] = Cardiovascular safety, beagle dogs
[30] = Phase Ic, multiple daily 300 mg doses
[31] = IND-directed repeat-dose toxicology studies
[32] = PK evaluation on coadministration with second-line drugs
[33] = 300 mg with high-fat, high-calorie meal
[34] = single oral dosing at 75, 140 and 300 mg/m^2

## CC(C)=CCC/C(C)=C/CNCCNC1C2CC3CC(C2)CC1C3 (stereo not drawn) [SQ109, N-geranyl-N′-(2-adamantyl)ethane-1,2-diamine]
Mtb [1]; Mycobacterium tuberculosis
  MIC: 0.78 µg/mL (≈ 2.36 µM)
Mtb [1]; overall range on Mtb
  MIC range: 0.2 to 0.78 µg/mL
[2]
  MIC: ≤ 0.2 µg/mL
[3]
  MIC: 4 to 16 µg/mL (≈ 12.1 to 48.4 µM)
[4]
  activity against other Mycobacteria: active
Mtb inside macrophages [5]
  interaction in macrophage intracellular killing assay: synergy
[6]; Mycobacterium tuberculosis, H37RV, read-out: MIC Alone
  MIC: 0.5 µg/mL
[6]; SQ109 with AMK, Unpublished Data
  in vitro interaction: synergy
[6]; SQ109 with CFZ, Reddy V, Unpublished Data
  in vitro interaction: synergy
[6]; SQ109 with CM, Unpublished Data
  in vitro interaction: synergy
[6]; SQ109 with CS, Unpublished Data
  in vitro interaction: additive
[6]; SQ109 with ETA, Unpublished Data
  in vitro interaction: additive
[6]; SQ109 with KAN, Unpublished Data
  in vitro interaction: additive
[6]; SQ109 with MXF, Unpublished Data
  in vitro interaction: synergy
[6]; SQ109 with all the rifamycins, including rifapentine and rifabutin
  in vitro interaction: profound synergy
[6]; SQ109 with para-aminosalicylic acid, Unpublished Data
  in vitro interaction: additive
[6]; checkerboard SQ109 + CFZ, Mtb H37Rv
  MIC Combination: 0.125 µg/mL
[7]; H. pylori
  bactericidal or bacteriostatic: bactericidal
  time–kill assays versus first-line drugs: better than amoxicillin and metronidazole
[7]; all H. pylori clinical isolates, manuscript in preparation
  MIC range: 2.5 to 15 µg/mL
Clostridium difficile
  MIC: 8 to 16 µg/mL (≈ 24.2 to 48.4 µM)
Aspergillus fumigatus
  MIC: 8 µg/mL (≈ 24.2 µM)
Candida spp.
  MIC: 1 to 8 µg/mL (≈ 3.03 to 24.2 µM)
Cryptococcus neoformans
  MIC: 0.25 to 4 µg/mL (≈ 0.756 to 12.1 µM)
Enterococci spp.
  MIC: 8 to 32 µg/mL (≈ 24.2 to 96.8 µM)
Haemophilus influenzae
  MIC: 1 to 32 µg/mL (≈ 3.03 to 96.8 µM)
Neisseria gonorrhoeae
  MBC: 0.038 µg/mL (≈ 0.115 µM)
  MIC: 0.038 µg/mL (≈ 0.115 µM)
Streptococcus pneumoniae
  MIC: 2 to 4 µg/mL (≈ 6.05 to 12.1 µM)
[8]
  in vivo drug–drug interactions or PK changes: no in vivo adverse drug–drug interactions or PK changes
Mtb [9]
  efficacious dose for treatment of TB: 10 mg/kg/day
[10]
  Salmonella–Escherichia coli/microsome plate incorporation assay: Negative
[11]
  Micronucleus assay in rats: Negative
[12]
  Functional observational battery parameters: No change
[13]
  Functional observational battery parameters: No change
[14]
  Minute volume: No change
  Respiratory rate: No change
  Tidal volume: No change
[15]; 75 mg daily for 14 days or 150 mg daily for 5 days then days 9 and 14
  tolerability: well tolerated
[15]; Phase Ib
  serious adverse events: no SAEs
Mouse lymphoma
  Mouse lymphoma mutation assay: Negative
[16]
  Segment 1: effects on male and female gamete maturation, copulatory performance, fertilization, zygote development and embryo implantation: No impact
  Segment 2: effects on pregnant female and development of embryo and fetus from implantation: No impact
[17]
  safety and tolerability: safe and well-tolerated
Mtb inside macrophages [18]; SQ109 with sutezolid
  time to kill intracellular Mtb in infected macrophage assay: improved synergistically
Mtb inside macrophages [18]; at its MIC
  reduction of intracellular Mtb: 99%
Mtb inside macrophages [18]
  killing of Mtb inside macrophages relative to INH and EMB: equivalent to INH and superior to EMB
[19]
  Activity on Mtb gene clusters GC82 and GC120: Downregulates
  transcription of the iniBAC operon: induces
Mtb [20]
  Effect on acid-fastness of Mtb: No effect
[21]
  improvement of SQ109 activity: fourfold
  in vitro interaction: synergistic; also recorded: additive
Mtb [22]
  incorporation into trehalose monomyclate (TMM): increased
Mtb [22]; trehalose dimycolate and arabinogalactan-bound mycolates
  incorporation of mycolic acids into the cell wall: decreased
Mtb [23]; versus untreated infected mice
  weight loss of infected mice: significantly reduced weight loss
Mtb [23]; mice
  efficacy in screening and chronic model of TB: efficacious
[24]
  activity in model of chronic TB: better activity than EMB at 100 mg/kg
[25]
  concentration in lung and spleen compared with plasma: at least 45 fold
[26]
  bioavailability of SQ109: 21.4%
[27]
  tissue distribution: highest concentrations of SQ109 in liver
CYP450 2D6 and 2C19
  human CYP450 enzymes producing the four major metabolites: CYP450 2D6 and 2C19
CYP3A4
  activation of CYP450 3A4: not activated
  metabolism by CYP450 3A4: nor is it metabolized
[28]; [33]
  food effect on half-life: increased
  food effect on maximum serum concentration: decreased
[28]; 10-mg oral dose
  mean maximum concentration: 0.729 ng/mL
[28]; 300-mg oral dose
  mean maximum concentration: 20.2 ng/mL
[28]; Phase Ia, single oral doses 5-300 mg
  serious adverse events: no serious AEs
[28]; human, serum, oral, 300 mg
  half-life: 61.1 h
[29]; at 75 and 140 mg/m^2
  Blood pressure: No change
[29]; [34]
  Body weights: No change
  Clinical observations: No deaths
  Clinical pathology: hematology or clinical chemistry: No change
  ECG waveforms (rhythms and morphology): No change
  Heart rate/ECG data: No change
[30]; 12 h after dosing, expected from plasma concentration–time profile
  subjects with lung concentrations above the MIC for Mtb: approximately 50%
[30]; Phase Ic, 300 mg daily for 14 days
  serious adverse events: no SAEs
[30]; daily administration of 300 mg
  time to steady-state conditions: ≤ 10 days
[30]; steady state, once-daily 300 mg, from preclinical plasma/lung relationship
  lung concentration relative to SQ109 MIC: approximately 5.8 fold
[31]; 40 mg/kg/day, three animal species, except emesis in dogs
  toxicities and adverse events: no cardiovascular, hepatic, hematologic, neurological or ocular toxicities
[31]; dog, rat, nonhuman primate, in vivo
  NOAEL: 30 to 40 mg/kg/day
[31]; in vivo
  phospholipidosis: did cause phospholipidosis
[32]; in the presence of CS and KAN
  exposure of mice to SQ109: slightly decreased
[32]; mice, SQ109 and MXF coadministered
  pharmacology profile on coadministration: not affected
